For one experiment, the target named is JAK2 (Homo sapiens (Human), UniProt O60674). In words: Jak Biochemical HTRF Assay, JAK2. Conditions: HTRF biochemical assay, GST-tagged catalytic domain; top concentration tested […]. The text has this:
(§1) Jak Biochemical HTRF Assay Protocol
(§2) Subsequent reagent additions employed an Agilent Bravo.
For orientation: Time-resolved FRET reads energy transfer from a long-lived donor to a nearby acceptor.

Another experiment deals with JAK1 (Homo sapiens (Human), UniProt P23458). In words: Jak Biochemical HTRF Assay, JAK1. Conditions: HTRF biochemical assay, GST-tagged catalytic domain; top concentration tested […]; read-out: JAK1 IC50.
From the text: as §1, §2

Chain of JAK1 (P23458 875-1153): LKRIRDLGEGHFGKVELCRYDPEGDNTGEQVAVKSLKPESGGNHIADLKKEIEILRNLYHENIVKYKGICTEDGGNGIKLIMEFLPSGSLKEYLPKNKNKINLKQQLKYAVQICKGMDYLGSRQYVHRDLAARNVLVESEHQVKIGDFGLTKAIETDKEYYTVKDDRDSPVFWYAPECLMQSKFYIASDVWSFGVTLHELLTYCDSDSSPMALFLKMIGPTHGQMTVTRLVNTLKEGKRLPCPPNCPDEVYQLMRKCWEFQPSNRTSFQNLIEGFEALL
Chain of JAK2 (O60674 849-1124): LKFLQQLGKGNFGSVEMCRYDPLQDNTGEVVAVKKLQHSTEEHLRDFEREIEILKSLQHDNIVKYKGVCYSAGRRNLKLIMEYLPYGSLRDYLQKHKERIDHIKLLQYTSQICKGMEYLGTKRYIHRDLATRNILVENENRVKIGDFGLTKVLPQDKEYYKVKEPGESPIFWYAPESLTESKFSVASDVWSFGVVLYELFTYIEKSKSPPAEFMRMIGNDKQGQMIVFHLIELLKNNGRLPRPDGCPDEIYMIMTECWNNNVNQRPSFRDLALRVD

`CCc1cccc(NC(=O)N2CC(CC#N)(n3cc(C(N)=O)c(Nc4ccccc4)n3)C2)c1` [Example 38-35, 1-{3-(cyanomethyl)-1-[(3-ethylphenyl)carbamoyl]azetidin-3-yl}-3-(phenylamino)-1H-pyrazole-4-carboxamide]: the IC50 worked out at 144 nM on JAK2 and 8 nM at JAK1.

As for `COc1ccc(-c2cccc(Nc3nn(C4(CC#N)CCN(C(=O)OC(C)(C)C)CC4)cc3C(N)=O)c2)cc1` [Example 15-4, tert-butyl 4-{4-carbamoyl-3-[(4′-methoxybiphenyl-3-yl)amino]-1H-pyrazol-1-yl}-4-(cyanomethyl)piperidine-1-carboxylate], the values for the IC50 against JAK2 and on JAK1 were 958 nM and 41 nM, respectively.

For the compound `CC(C)(C)OC(=O)N1CC2(C1)CC(CC#N)(n1cc(C(N)=O)c(Nc3ccccc3)n1)C2` [Example 2-23, tert-butyl 6-[4-carbamoyl-3-(phenylamino)-1H-pyrazol-1-yl]-6-(cyanomethyl)-2-azaspiro[3.3]heptane-2-carboxylate], the values for the half-inhibitory concentration (IC50) against JAK2 and at JAK1 were 1480 nM and 198 nM, respectively.

For `N#CCC1(n2cc(C(N)=O)c(Nc3ccccc3)n2)CCN(C(=O)OC2CCOC2)CC1` (centres unmarked) [Example 30-36, 4-carbamoyl-1-[4-(cyanomethyl)-1-{[(3R and 3S)-tetrahydrofuran-3-yloxy]carbonyl}piperidin-4-yl]-3-(phenylamino)-1H-pyrazol-2-ium], the IC50 against JAK2 came out at 40 nM; at JAK1, 1 nM.

In the case of `CC(C)(C)OC(=O)N1CC[C@](CC#N)(n2cc(C(N)=O)c(Nc3ccc(F)cc3)n2)[C@H](F)C1` (racemic) [Example 6-4, tert-butyl (3S,4S and 3R,4R)-4-{4-carbamoyl-3-[(4-fluorophenyl)amino]-1H-pyrazol-1-yl}-4-(cyanomethyl)-3-fluoropiperidine-1-carboxylate], the IC50 on JAK2 was determined as 0.2 nM; at JAK1, 0.05 nM.

`N#CCC1(n2cc(C(N)=O)c(Nc3ccc(F)cc3)n2)CCN(c2ccccn2)CC1` [Example 25, 1-(4-(Cyanomethyl)-1-(pyridin-2-yl)piperidin-4-yl)-3-(4-fluorophenylamino)-1H-pyrazole-4-carboxamide]: the IC50 was 2 nM at JAK2 and 0.08 nM at JAK1.

Turning to `N#CCC1(n2cc(C(N)=O)c(Nc3ccnc(F)c3)n2)CCN(Cc2cccc(O)c2)CC1` [Example 22-70, 1-[4-(cyanomethyl)-1-(3-hydroxybenzyl)piperidin-4-yl]-3-[(2-fluoropyridin-4-yl)amino]-1H-pyrazole-4-carboxamide], the IC50 against JAK2 is 1 nM; on JAK1 it was 0.04 nM.

In the case of `N#CCC1(n2cc(C(N)=O)c(Nc3cncc(Cl)c3)n2)CCN(C(=O)OCC(F)(F)F)CC1` [Example 10-9, 2,2,2-trifluoroethyl 4-{4-carbamoyl-3-[(5-chloropyridin-3-yl)amino]-1H-pyrazol-1-yl}-4-(cyanomethyl)piperidine-1-carboxylate], the IC50 against JAK2 was determined as 15 nM; on JAK1, 0.4 nM.

On to `COc1cc(N2CCC(CC#N)(n3cc(C(N)=O)c(Nc4ccc(F)cc4)n3)CC2)ccc1F` [Example 3-11, 1-[4-(cyanomethyl)-1-(4-fluoro-3-methoxyphenyl)piperidin-4-yl]-3-[(4-fluorophenyl)amino]-1H-pyrazole-4-carboxamide], for which the IC50 on JAK2 came to 74 nM; on JAK1 it was 4 nM.

With `Cc1cccc(Cl)c1NC(=O)N1CC(CC#N)(n2cc(C(N)=O)c(Nc3ccccc3)n2)C1` [Example 38-24, 1-{1-[(2-chloro-6-methylphenyl)carbamoyl]-3-(cyanomethyl)azetidin-3-yl}-3-(phenylamino)-1H-pyrazole-4-carboxamide], the IC50 at JAK2 amounted to 179 nM; on JAK1, 5 nM.

As to `N#CCC1(n2cc(C(N)=O)c(Nc3ccnc(F)c3)n2)CCN(Cc2ccon2)CC1` [Example 22-31, 1-[4-(cyanomethyl)-1-(isoxazol-3-ylmethyl)piperidin-4-yl]-3-[(2-fluoropyridin-4-yl)amino]-1H-pyrazole-4-carboxamide], the figures for the IC50 against JAK2 and on JAK1 were 47 nM and 1 nM, respectively.

Regarding `Cc1cc(C)cc(NC(=O)N2CC(CC#N)(n3cc(C(N)=O)c(Nc4ccccc4)n3)C2)c1` [Example 38-20, 1-{3-(cyanomethyl)-1-[(3,5-dimethylphenyl)carbamoyl]azetidin-3-yl}-3-(phenylamino)-1H-pyrazole-4-carboxamide], the figures for the IC50 against JAK2 and on JAK1 were 326 nM and 19 nM, respectively.

Take `CC(C)(C)OC(=O)N1CCC(CC#N)(n2cc(C(N)=O)c(Nc3ccc(C(=O)C(F)(F)F)cc3)n2)CC1` [Example 9-11, tert-butyl 4-(4-carbamoyl-3-{[4-(trifluoroacetyl)phenyl]amino}-1H-pyrazol-1-yl)-4-(cyanomethyl)piperidine-1-carboxylate]: the IC50 was 3 nM on JAK2 and 0.2 nM on JAK1.

Consider `COCC(=O)N1CCC(CC#N)(n2cc(C(N)=O)c(Nc3ccnc(F)c3)n2)CC1` [Example 34-42, 1-[4-(cyanomethyl)-1-(methoxyacetyl)piperidin-4-yl]-3-[(2-fluoropyridin-4-yl)amino]-1H-pyrazole-4-carboxamide], for which the figures for the IC50 against JAK2 and at JAK1 were 96 nM and 3 nM, respectively.

Take `Cc1ccc(F)cc1N1CCC(CC#N)(n2cc(C(N)=O)c(Nc3ccc(F)cc3)n2)CC1` [Example 3-32, 1-[4-(cyanomethyl)-1-(5-fluoro-2-methylphenyl)piperidin-4-yl]-3-[(4-fluorophenyl)amino]-1H-pyrazole-4-carboxamide]: the IC50 against JAK2 was over 1500 nM; on JAK1, 204 nM.

Consider `Cc1ccc(NC(=O)N2CC(CC#N)(n3cc(C(N)=O)c(Nc4ccccc4)n3)C2)cc1Cl` [Example 38-13, 1-{1-[(3-chloro-4-methylphenyl)carbamoyl]-3-(cyanomethyl)azetidin-3-yl}-3-(phenylamino)-1H-pyrazole-4-carboxamide], for which the figures for the IC50 on JAK2 and at JAK1 were 339 nM and 21 nM, respectively.

In the case of `CC(C)(C)OC(=O)N1CCC(CC#N)(n2cc(C(N)=O)c(Nc3cccc(Cn4nnc5ccccc54)c3)n2)CC1` [Example 2-4, tert-butyl 4-(3-{[3-(1H-benzotriazol-1-ylmethyl)phenyl]amino}-4-carbamoyl-1H-pyrazol-1-yl)-4-(cyanomethyl)piperidine-1-carboxylate], the IC50 at JAK2 came to 18 nM; at JAK1 it was 0.5 nM.

In the case of `N#CCC1(n2cc(C(N)=O)c(Nc3ccnc(F)c3)n2)CCN(Cc2ccc(C#N)cc2)CC1` [Example 22-69, 1-[1-(4-cyanobenzyl)-4-(cyanomethyl)piperidin-4-yl]-3-[(2-fluoropyridin-4-yl)amino]-1H-pyrazole-4-carboxamide], the IC50 turned out to be 9 nM against JAK2 and 0.2 nM at JAK1.

With `N#CCC1(n2cc(C(N)=O)c(Nc3ccnc(F)c3)n2)CCN(Cc2cccnc2)CC1` [Example 22-2, 1-[4-(cyanomethyl)-1-(pyridin-3-ylmethyl)piperidin-4-yl]-3-[(2-fluoropyridin-4-yl)amino]-1H-pyrazole-4-carboxamide], the IC50 against JAK2 turned out to be 5 nM; at JAK1 it was 0.2 nM.

As a reminder, the IC50 is the concentration needed to halve the response being measured.

The values are drawn from patent US9328099B2, “Cyanomethylpyrazole carboxamides as janus kinase inhibitors” (Merck Sharp & Dohme Corp., priority 2011, dated 2016).
